For 49 compounds, MIC80 results are on record in patent US20160185774A1, “Anti-Infective Compounds” (priority 2013, published 2016).

The structures appear in SMILES notation. ≈ marks a conversion by molar mass, not a printed value.

In the assay the test system is M. tuberculosis. As to the kind of experiment: microbe, parasite or virus in culture. The format is cell-based. The following applies: Mycobacterium tuberculosis, 120 h; read-out: QUM (MIC80).
On to `CCc1nc2ccc(F)cn2c1C(=O)NCc1ccc(N2CCN(c3ccccc3)CC2)cc1` [Compound 71], for which the MIC80 was less than 1 µM.
As for `CCc1nc2ccc(Br)cn2c1C(=O)NCc1ccc(N2CCC(c3ccc(F)cc3)CC2)cc1` [Compound 72], the figure is less than 1 µM; as for `CCc1nc2c(C)cccn2c1C(=O)NCc1ccc(N2CCC(c3ccccc3)CC2)cc1` [Compound 73], less than 1 µM.
As for `CCc1nc2cc(F)ccn2c1C(=O)NCc1ccc(N2CCN(c3ccc(OC)cc3)CC2)cc1` [Compound 74], the figure is less than 1 µM; as for `CCc1nc2ccc(F)cn2c1C(=O)NCc1ccc(N2CCN(c3ccc(C)cc3)CC2)cc1` [Compound 75], less than 1 µM; as for `CCc1nc2ccc(F)cn2c1C(=O)NCc1ccc(N2CCN(c3ccc(C(F)(F)F)cc3)CC2)cc1` [Compound 76], less than 1 µM.
With `CCc1nc2ccc(F)cn2c1C(=O)NCc1ccc(N2CCN(c3ccc(Cl)cc3)CC2)cc1` [Compound 77], the MIC80 was less than 1 µM.
For `CCc1nc2c(C(F)(F)F)cccn2c1C(=O)NCc1ccc(N2CCC(c3ccc(F)cc3)CC2)cc1` [Compound 78], the MIC80 was in the range of 1 to 20 µM (≈ 0.525 to 10.5 µg/mL).
For `CCc1nc2ccc(Br)cn2c1C(=O)NCc1ccc(N2CCC(c3ccc(C)cc3)CC2)cc1` [Compound 79], the MIC80 is less than 1 µM.
The result for `CCc1nc2ccc(C(F)(F)F)cn2c1C(=O)NCc1ccc(N2CCN(c3ccccc3)CC2)cc1` [Compound 80] reads less than 1 µM; that for `CCc1nc2cc(C(F)(F)F)ccn2c1C(=O)NCc1ccc(N2CCN(c3ccccc3)CC2)cc1` [Compound 81], less than 1 µM; that for `CCc1nc2cc(F)ccn2c1C(=O)NCc1ccc(N2CCN(c3ccc(F)cc3)CC2)cc1` [Compound 82], less than 1 µM.
The result for `CCc1nc2c(C)cccn2c1C(=O)NCc1ccc(N2CCN(c3ccc(F)cc3)CC2)cc1` [Compound 83] reads less than 1 µM; that for `CCc1nc2c(C(F)(F)F)cccn2c1C(=O)NCc1ccc(N2CCN(c3ccccc3)CC2)cc1` [Compound 84], 1 to 20 µM (≈ 0.508 to 10.2 µg/mL).
The result for `CCc1nc2c(Cl)cccn2c1C(=O)NCc1ccc(N2CCN(c3ccc(F)cc3)CC2)cc1` [Compound 85] reads less than 1 µM; that for `CCc1nc2cc(C(F)(F)F)ccn2c1C(=O)NCc1ccc(N2CCN(c3ccc(F)cc3)CC2)cc1` [Compound 86], less than 1 µM; that for `CCc1nc2ccc(C(F)(F)F)cn2c1C(=O)NCc1ccc(N2CCN(c3ccc(F)cc3)CC2)cc1` [Compound 87], less than 1 µM.
Take `CCc1nc2c(C(F)(F)F)cccn2c1C(=O)NCc1ccc(N2CCC(c3ccc(C(F)(F)F)cc3)CC2)cc1` [Compound 88]: the MIC80 was 1 to 20 µM (≈ 0.575 to 11.5 µg/mL).
As for `CCc1nc2c(Br)cccn2c1C(=O)NCc1ccc(N2CCC(c3ccc(OC)cc3)CC2)cc1` [Compound 89], the figure is 1 to 20 µM (≈ 0.547 to 10.9 µg/mL); as for `CCc1nc2cc(F)ccn2c1C(=O)NCc1ccc(N2CCN(c3ccc(Cl)cc3)CC2)cc1` [Compound 90], less than 1 µM; as for `CCc1nc2cc(OC)ccn2c1C(=O)NCc1ccc(N2CCC(c3ccc(OC)cc3)CC2)cc1` [Compound 92], less than 1 µM.
The result for `CCc1nc2cc(F)ccn2c1C(=O)NCc1ccc(N2CCN(c3ccc(C)cc3)CC2)cc1` [Compound 93] reads less than 1 µM.
As for `CCc1nc2c(Br)cccn2c1C(=O)NCc1ccc(N2CCN(c3ccc(OC(F)(F)F)cc3)CC2)cc1` [Compound 94], the MIC80 is less than 1 µM.
In the case of `CCc1nc2c(Br)cccn2c1C(=O)NCc1ccc(N2CCN(c3ccc(OC)cc3)CC2)cc1` [Compound 95], the MIC80 was less than 1 µM.
The result for `CCc1nc2cc(C(F)(F)F)ccn2c1C(=O)NCc1ccc(N2CCN(c3ccc(OC)cc3)CC2)cc1` [Compound 96] reads less than 1 µM.
As for `CCc1nc2c(Br)cccn2c1C(=O)NCc1ccc(N2CCN(c3ccc(C)cc3)CC2)cc1` [Compound 97], the figure is less than 1 µM.
As for `CCc1nc2c(Cl)cccn2c1C(=O)NCc1ccc(N2CCC(c3ccc(OC)cc3)CC2)cc1` [Compound 98], the figure is less than 1 µM; as for `CCc1nc2c(C(F)(F)F)cccn2c1C(=O)NCc1ccc(N2CCN(c3ccc(C)cc3)CC2)cc1` [Compound 99], 1 to 20 µM (≈ 0.522 to 10.4 µg/mL).
For the compound `CCc1nc2ccc(OC)cn2c1C(=O)NCc1ccc(N2CCN(c3ccc(C)cc3)CC2)cc1` [Compound 100], the MIC80 was less than 1 µM.
The result for `CCc1nc2ccc(Br)cn2c1C(=O)NCc1ccc(N2CCN(c3ccc(C)cc3)CC2)cc1` [Compound 101] reads less than 1 µM.
Regarding `CCc1nc2ccc(C(F)(F)F)cn2c1C(=O)NCc1ccc(N2CCN(c3ccc(C)cc3)CC2)cc1` [Compound 102], the MIC80 was less than 1 µM.
As for `CCc1nc2c(OC)cccn2c1C(=O)NCc1ccc(N2CCN(c3ccc(Cl)cc3)CC2)cc1` [Compound 103], the figure is 1 to 20 µM (≈ 0.504 to 10.1 µg/mL); as for `CCc1nc2c(OC)cccn2c1C(=O)NCc1ccc(N2CCN(c3ccc(C)cc3)CC2)cc1` [Compound 104], 1 to 20 µM (≈ 0.484 to 9.67 µg/mL).
As for `CCc1nc2c(C(F)(F)F)cccn2c1C(=O)NCc1ccc(N2CCN(c3ccc(OC)cc3)CC2)cc1` [Compound 105], the figure is 1 to 20 µM (≈ 0.538 to 10.8 µg/mL); as for `CCc1nc2cc(C(F)(F)F)ccn2c1C(=O)NCc1ccc(N2CCN(c3ccc(C)cc3)CC2)cc1` [Compound 106], less than 1 µM.
As for `CCc1nc2ccc(OC)cn2c1C(=O)NCc1ccc(N2CCN(c3ccc(OC(F)(F)F)cc3)CC2)cc1` [Compound 107], the figure is less than 1 µM.
In the case of `CCc1nc2cc(OC)ccn2c1C(=O)NCc1ccc(N2CCN(c3ccc(C)cc3)CC2)cc1` [Compound 108], the MIC80 was less than 1 µM.
As for `CCc1nc2ccc(C(F)(F)F)cn2c1C(=O)NCc1ccc(N2CCN(c3ccc(OC)cc3)CC2)cc1` [Compound 109], the figure is less than 1 µM.
The result for `CCc1nc2cc(OC)ccn2c1C(=O)NCc1ccc(N2CCN(c3ccc(OC)cc3)CC2)cc1` [Compound 110] reads less than 1 µM.
The result for `CCc1nc2ccc(OC)cn2c1C(=O)NCc1ccc(N2CCN(c3ccc(OC)cc3)CC2)cc1` [Compound 111] reads less than 1 µM; that for `CCc1nc2c(C(F)(F)F)cccn2c1C(=O)NCc1ccc(N2CCC(c3ccccc3)CC2)cc1` [Compound 112], 1 to 20 µM (≈ 0.507 to 10.1 µg/mL); that for `CCc1nc2cc(Br)ccn2c1C(=O)NCc1ccc(N2CCC(c3ccccc3)CC2)cc1` [Compound 113], less than 1 µM.
`CCc1nc2ccc(F)cn2c1C(=O)NCc1ccc(N2CCC(c3ccc(C)cc3)CC2)cc1` [Compound 115]: the MIC80 was less than 1 µM.
The result for `CCc1nc2cc(F)ccn2c1C(=O)NCc1ccc(N2CCN(c3ccc(OC(F)(F)F)cc3)CC2)cc1` [Compound 116] reads less than 1 µM.
The result for `CCc1nc2c(OC)cccn2c1C(=O)NCc1ccc(N2CCC(c3ccc(OC(F)(F)F)cc3)CC2)cc1` [Compound 117] reads 1 to 20 µM (≈ 0.553 to 11.1 µg/mL).
For `CCc1nc2ccc(OC)cn2c1C(=O)NCc1ccc(N2CCC(c3ccccc3)CC2)cc1` [Compound 118], the MIC80 was less than 1 µM.
As for `CCc1nc2c(Cl)cccn2c1C(=O)NCc1ccc(N2CCC(c3ccc(C(F)(F)F)cc3)CC2)cc1` [Compound 119], the figure is less than 1 µM; as for `CCc1nc2ccc(C(F)(F)F)cn2c1C(=O)NCc1ccc(N2CCC(c3ccc(OC)cc3)CC2)cc1` [Compound 120], less than 1 µM; as for `CCc1nc2ccc(C(F)(F)F)cn2c1C(=O)NCc1ccc(N2CCN(c3ccc(Cl)cc3)CC2)cc1` [Compound 121], less than 1 µM.
